Results: US20070027067A1, “Transition-state Inhibitors of Pin1, alpha-Ketoamide-containing peptidomimetics, and synthesis thereof” (priority 2005, published 2007)

Assay: stability of the product in solution
Assay type: physicochemical
Details: CDCl3 solution, after 2 days; decomposition product appears to be a cyclic dimer (bis-lactone)
Source text: The compound 7 characterized by MS was obtained in 30% yield. […] The decomposition product appears to be a cyclic dimer (bis-lactone) of 7. [drawing 8] [drawing 9]

## O=C(N[C@@H](CO)C(=O)C(=O)N1CCC[C@H]1C(=O)O)OCC1c2ccccc2-c2ccccc21 [Compound 7]
  stability in solution (decomposition): totally decomposed
